{"source": "patent CN111517978A", "about": "“环己烯基-dl-天门冬氨酸衍生物及其制备方法、组合物与用途” (Zhongshan Wanhan Pharmaceutical Co ltd, priority 2020, dated 2020)", "format_in_all_cases": "cell-based", "settings_in_all_cases": "component A (XP or YS) alone", "key": {"[1]": {"tested_on": "Micrococcus lysodeikticus 2665 (溶壁微球菌2665)", "assay": "Antibacterial action (MIC, FICI) against Micrococcus lysodeikticus 2665 (Table 4)"}, "[2]": {"tested_on": "Clostridium perfringens ATCC13124 (产气荚膜梭状芽孢杆菌ATCC13124)"}, "[3]": {"tested_on": "Propionibacterium acnes ATCC11828 (痤疮丙酸杆菌ATCC11828)", "assay": "Antibacterial action (MIC, FICI) against Propionibacterium acnes ATCC11828 (Table 21)"}, "[4]": {"tested_on": "Providencia stuartii 57 (斯氏普罗威登斯菌57)", "assay": "Antibacterial action (MIC, FICI) against Providencia stuartii 57 (Table 12)"}, "[5]": {"tested_on": "Serratia marcescens IFO 3736 (黏质沙雷氏菌IFO 3736)", "assay": "Antibacterial action (MIC, FICI) against Serratia marcescens IFO 3736 (Table 10)"}, "[6]": {"tested_on": "Streptococcus intermedius ATCC27335 (中间链球菌ATCC27335)", "assay": "Antibacterial action (MIC, FICI) against Streptococcus intermedius ATCC27335 (Table 20)"}, "[7]": {"tested_on": "Bacteroides fragilis ATCC25285 (脆弱拟杆菌ATCC25285)", "assay": "Antibacterial action (MIC, FICI) against Bacteroides fragilis ATCC25285 (Table 26)"}, "[8]": {"tested_on": "Escherichia coli ATCC25922 (大肠杆菌ATCC25922)", "assay": "Antibacterial action (MIC, FICI) against Escherichia coli ATCC25922 (Table 7)"}, "[9]": {"tested_on": "Stenotrophomonas maltophilia NCTC 13637 (嗜麦芽窄食单胞菌NCTC 13637)", "assay": "Antibacterial action (MIC, FICI) against Stenotrophomonas maltophilia NCTC 13637 (Table 18)"}, "[10]": {"tested_on": "Shigella flexneri 2aEW-10 (福氏志贺氏菌2aEW-10)", "assay": "Antibacterial action (MIC, FICI) against Shigella flexneri 2aEW-10 (Table 15)"}, "[11]": {"tested_on": "Klebsiella pneumoniae NCTC 9632 (肺炎克雷伯菌NCTC 9632)", "assay": "Antibacterial action (MIC, FICI) against Klebsiella pneumoniae NCTC 9632 (Table 9)"}}}
{"smiles": "CCOC(=O)C1=C[C@@H](OC(CC)CC)[C@H](NC(C)=O)[C@@H](N)C1", "note": "[化合物1S, 乙基(3R,4R,5S)-4-乙酰氨基-5-氨基-3-(戊-3-基氧基)环己-1-烯-1-羧酸酯]", "values": [{"measurement": "MIC_A", "setting": "[1]", "value": 300, "unit": "ng/mL"}, {"measurement": "MIC_A", "setting": "[2]", "value": 504, "unit": "ng/mL"}, {"measurement": "MIC_A", "setting": "[3]", "value": 633, "unit": "ng/mL"}, {"measurement": "MIC_A", "setting": "[4]", "value": 1178, "unit": "ng/mL"}]}
{"smiles": "CCOC(=O)C1=C[C@@H](OC(CC)CC)[C@H](NC(C)=O)[C@H](NC(CC(=O)O)C(=O)O)C1", "note": "(mixture of isomers) [化合物9P, ((1R,5R,6R)-6-乙酰氨基-3-(乙氧基羰基)-5-(戊-3-基氧基)环己-3-烯-1-基)-DL-天门冬氨酸]", "values": [{"measurement": "MIC_A", "setting": "[5]", "value": 49, "unit": "ng/mL"}, {"measurement": "MIC_A", "setting": "[1]", "value": 18, "unit": "ng/mL"}, {"measurement": "MIC_A", "setting": "[6]", "value": 9, "unit": "ng/mL"}, {"measurement": "MIC_A", "setting": "[7]", "value": 16, "unit": "ng/mL"}, {"measurement": "MIC_A", "setting": "[4]", "value": 29, "unit": "ng/mL"}]}
{"smiles": "CCOC(=O)C1=C[C@@H](OC(CC)CC)[C@H](NC(C)=O)[C@@H](NC(CC(=O)O)C(=O)O)C1", "note": "(mixture of isomers) [化合物4P, ((1S,5R,6R)-6-乙酰氨基-3-(乙氧基羰基)-5-(戊-3-基氧基)环己-3-烯-1-基)-DL-天门冬氨酸]", "values": [{"measurement": "MIC_A", "setting": "[8]", "value": 17, "unit": "ng/mL"}, {"measurement": "MIC_A", "setting": "[2]", "value": 36, "unit": "ng/mL"}, {"measurement": "MIC_A", "setting": "[4]", "value": 34, "unit": "ng/mL"}]}
{"smiles": "CCC(CC)O[C@@H]1C=C(C(=O)O)C[C@H](NC(C)=O)[C@H]1NC(CC(=O)O)C(=O)O", "note": "(mixture of isomers) [化合物2P, ((1R,2R,6S)-6-乙酰氨基-4-羧基-2-(戊-3-基氧基)环己-3-烯-1-基)-DL-天门冬氨酸]", "values": [{"measurement": "MIC_A", "setting": "[8]", "value": 45, "unit": "ng/mL"}, {"measurement": "MIC_A", "setting": "[6]", "value": 10, "unit": "ng/mL"}, {"measurement": "MIC_A", "setting": "[9]", "value": 13, "unit": "ng/mL"}, {"measurement": "MIC_A", "setting": "[10]", "value": 22, "unit": "ng/mL"}]}
{"smiles": "CCOC(=O)C1=C[C@@H](OC(CC)CC)[C@H](N)[C@@H](NC(CC(=O)O)C(=O)O)C1", "note": "(mixture of isomers) [化合物12P, ((1S,5R,6R)-6-氨基-3-(乙氧基羰基)-5-(戊-3-基氧基)环己-3-烯-1-基)-DL-天门冬氨酸]", "values": [{"measurement": "MIC_A", "setting": "[5]", "value": 47, "unit": "ng/mL"}, {"measurement": "MIC_A", "setting": "[1]", "value": 30, "unit": "ng/mL"}, {"measurement": "MIC_A", "setting": "[6]", "value": 25, "unit": "ng/mL"}]}
{"smiles": "CCOC(=O)C1=C[C@H](OC(CC)CC)[C@@H](N)[C@H](N)C1", "note": "[化合物17S, 乙基(3S,4S,5R)-4,5-二氨基-3-(戊-3-基氧基)环己-1-烯-1-羧酸酯]", "values": [{"measurement": "MIC_A", "setting": "[8]", "value": 683, "unit": "ng/mL"}, {"measurement": "MIC_A", "setting": "[2]", "value": 684, "unit": "ng/mL"}, {"measurement": "MIC_A", "setting": "[3]", "value": 969, "unit": "ng/mL"}, {"measurement": "MIC_A", "setting": "[9]", "value": 447, "unit": "ng/mL"}, {"measurement": "MIC_A", "setting": "[10]", "value": 929, "unit": "ng/mL"}]}
{"smiles": "CCOC(=O)C1=C[C@@H](OC(C)CC)[C@H](NC(C)=O)[C@@H](N)C1", "note": "(stereo partly drawn) [化合物19S, 乙基(3R,4R,5S)-4-乙酰氨基-5-氨基-3-(sec-丁氧基)环己-1-烯-1-羧酸酯]", "values": [{"measurement": "MIC_A", "setting": "[5]", "value": 1016, "unit": "ng/mL"}, {"measurement": "MIC_A", "setting": "[6]", "value": 310, "unit": "ng/mL"}, {"measurement": "MIC_A", "setting": "[4]", "value": 823, "unit": "ng/mL"}]}
{"smiles": "CCC(CC)O[C@H]1C=C(C(=O)O)C[C@@H](N)[C@@H]1N", "note": "[化合物16S, (3S,4S,5R)-4,5-二氨基-3-(戊-3-基氧基)环己-1-烯-1-羧酸]", "values": [{"measurement": "MIC_A", "setting": "[11]", "value": 1179, "unit": "ng/mL"}]}
{"smiles": "CCOC(=O)C1=C[C@@H](OC(CC)CC)[C@H](NC(C)=O)[C@@H](N)C1", "note": "[化合物4S, 乙基(3R,4R,5S)-4-乙酰氨基-5-氨基-3-(戊-3-基氧基)环己-1-烯-1-羧酸酯]", "values": [{"measurement": "MIC_A", "setting": "[8]", "value": 456, "unit": "ng/mL"}, {"measurement": "MIC_A", "setting": "[2]", "value": 762, "unit": "ng/mL"}, {"measurement": "MIC_A", "setting": "[4]", "value": 581, "unit": "ng/mL"}]}
{"smiles": "CCOC(=O)C1=C[C@H](OC(CC)CC)[C@@H](NC(C)=O)[C@H](N)C1", "note": "[化合物7S, 乙基(3S,4S,5R)-4-乙酰氨基-5-氨基-3-(戊-3-基氧基)环己-1-烯-1-羧酸酯]", "values": [{"measurement": "MIC_A", "setting": "[8]", "value": 484, "unit": "ng/mL"}, {"measurement": "MIC_A", "setting": "[3]", "value": 461, "unit": "ng/mL"}, {"measurement": "MIC_A", "setting": "[11]", "value": 376, "unit": "ng/mL"}, {"measurement": "MIC_A", "setting": "[10]", "value": 1145, "unit": "ng/mL"}]}
{"smiles": "CCC(CC)O[C@@H]1C=C(C(=O)O)C[C@H](NC(CC(=O)O)C(=O)O)[C@H]1N", "note": "(mixture of isomers) [化合物11P, ((1S,5R,6R)-6-氨基-3-羧基-5-(戊-3-基氧基)环己-3-烯-1-基)-DL-天门冬氨酸]", "values": [{"measurement": "MIC_A", "setting": "[8]", "value": 7, "unit": "ng/mL"}, {"measurement": "MIC_A", "setting": "[2]", "value": 22, "unit": "ng/mL"}, {"measurement": "MIC_A", "setting": "[11]", "value": 22, "unit": "ng/mL"}, {"measurement": "MIC_A", "setting": "[9]", "value": 50, "unit": "ng/mL"}, {"measurement": "MIC_A", "setting": "[4]", "value": 17, "unit": "ng/mL"}]}
{"smiles": "CCOC(=O)C1=C[C@@H](OC(CC)CC)[C@@H](NC(C)=O)[C@@H](N)C1", "note": "[化合物8S, 乙基(3R,4S,5S)-4-乙酰氨基-5-氨基-3-(戊-3-基氧基)环己-1-烯-1-羧酸酯]", "values": [{"measurement": "MIC_A", "setting": "[2]", "value": 483, "unit": "ng/mL"}, {"measurement": "MIC_A", "setting": "[9]", "value": 800, "unit": "ng/mL"}]}
{"smiles": "CCC(CC)O[C@@H]1C=C(C(=O)O)C[C@H](NC(C)=O)[C@H]1N", "note": "[化合物2S, (3R,4R,5S)-5-乙酰氨基-4-氨基-3-(戊-3-基氧基)环己-1-烯-1-羧酸]", "values": [{"measurement": "MIC_A", "setting": "[8]", "value": 720, "unit": "ng/mL"}, {"measurement": "MIC_A", "setting": "[6]", "value": 493, "unit": "ng/mL"}, {"measurement": "MIC_A", "setting": "[9]", "value": 879, "unit": "ng/mL"}, {"measurement": "MIC_A", "setting": "[10]", "value": 345, "unit": "ng/mL"}]}
{"smiles": "CCOC(=O)C1=C[C@@H](O)[C@H](N)[C@@H](NC(CC(=O)O)C(=O)O)C1", "note": "(mixture of isomers) [化合物14P, ((1S,5R,6R)-6-氨基-3-(乙氧基羰基)-5-羟基环己-3-烯-1-基)-DL-天门冬氨酸]", "values": [{"measurement": "MIC_A", "setting": "[5]", "value": 46, "unit": "ng/mL"}, {"measurement": "MIC_A", "setting": "[3]", "value": 18, "unit": "ng/mL"}]}
{"smiles": "CCOC(=O)C1=C[C@@H](O)[C@H](N)[C@@H](N)C1", "note": "[化合物14S, 乙基(3R,4R,5S)-4,5-二氨基-3-羟基环己-1-烯-1-羧酸酯]", "values": [{"measurement": "MIC_A", "setting": "[5]", "value": 1102, "unit": "ng/mL"}, {"measurement": "MIC_A", "setting": "[3]", "value": 701, "unit": "ng/mL"}]}
